Measured values published in paper doi:10.1101/2024.08.19.608619, “Discovery of potent SARS-CoV-2 nsp3 macrodomain inhibitors uncovers lack of translation to cellular antiviral response” (bioRxiv, 2024).

Tests used:
[1] = In vitro human hepatocyte stability; format: in vitro ADME
Description: Supplement media-1.zip/Hepatocyte_Stability.csv, table | column: clint; t_half

Protein binding = format: in vitro ADME
Description: Supplement media-1.zip/Protein_Binding.csv, table | column: fu; perc_bound; perc_free; perc_recovered

H2 (h) = biological target: T1, H2 (h) (Homo sapiens, UniProt P25021); test: In vitro CEREP profiling, H2 (h) (antagonist radioligand); format: binding; details: test compound concentration 10 uM
T1 construct: purchased Eurofins Cerep (SafetyScreen44), recognised from the panel format
T1 sequence (P25021 whole entry): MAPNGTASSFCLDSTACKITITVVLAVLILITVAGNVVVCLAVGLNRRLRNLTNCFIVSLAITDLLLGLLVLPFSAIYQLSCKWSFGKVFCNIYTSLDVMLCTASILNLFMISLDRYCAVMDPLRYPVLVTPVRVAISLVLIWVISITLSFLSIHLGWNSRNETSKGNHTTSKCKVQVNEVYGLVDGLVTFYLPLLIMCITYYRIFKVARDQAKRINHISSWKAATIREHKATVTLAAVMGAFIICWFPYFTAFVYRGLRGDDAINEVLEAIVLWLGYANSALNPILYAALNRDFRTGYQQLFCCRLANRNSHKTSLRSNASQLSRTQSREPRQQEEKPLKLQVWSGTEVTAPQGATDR
Description: (§1) Supplement media-1.zip/Safety_Panel_Profile.csv, table | column: perc_inhibition

MAO-A = biological target: T2, MAO-A (Rattus norvegicus, UniProt P21396); test: In vitro CEREP profiling, MAO-A (antagonist radioligand); format: binding; details: test compound concentration 10 uM
T2 construct: purchased Eurofins Cerep (SafetyScreen44), recognised from the panel format
T2 sequence (P21396 1-526): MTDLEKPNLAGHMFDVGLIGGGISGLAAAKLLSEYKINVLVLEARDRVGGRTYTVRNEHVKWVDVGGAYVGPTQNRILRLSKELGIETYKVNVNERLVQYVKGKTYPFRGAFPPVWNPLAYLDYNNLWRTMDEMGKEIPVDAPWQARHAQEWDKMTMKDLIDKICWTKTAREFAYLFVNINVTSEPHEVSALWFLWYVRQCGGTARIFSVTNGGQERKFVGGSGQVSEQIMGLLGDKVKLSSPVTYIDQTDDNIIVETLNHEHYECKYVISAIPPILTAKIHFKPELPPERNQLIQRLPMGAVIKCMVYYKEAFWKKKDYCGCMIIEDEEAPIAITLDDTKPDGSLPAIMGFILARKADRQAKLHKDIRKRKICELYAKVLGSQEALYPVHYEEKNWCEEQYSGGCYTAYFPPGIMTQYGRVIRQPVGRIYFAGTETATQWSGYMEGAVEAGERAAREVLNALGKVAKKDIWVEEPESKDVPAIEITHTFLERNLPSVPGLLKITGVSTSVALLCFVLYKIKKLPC
Description: as §1

5-HT3 (h) = biological target: T3, 5-HT3 (h) (Homo sapiens, UniProt P46098); test: In vitro CEREP profiling, 5-HT3 (h) (antagonist radioligand); format: binding; details: test compound concentration 10 uM
T3 construct: purchased Eurofins Cerep (SafetyScreen44), recognised from the panel format
T3 sequence (P46098 24-478): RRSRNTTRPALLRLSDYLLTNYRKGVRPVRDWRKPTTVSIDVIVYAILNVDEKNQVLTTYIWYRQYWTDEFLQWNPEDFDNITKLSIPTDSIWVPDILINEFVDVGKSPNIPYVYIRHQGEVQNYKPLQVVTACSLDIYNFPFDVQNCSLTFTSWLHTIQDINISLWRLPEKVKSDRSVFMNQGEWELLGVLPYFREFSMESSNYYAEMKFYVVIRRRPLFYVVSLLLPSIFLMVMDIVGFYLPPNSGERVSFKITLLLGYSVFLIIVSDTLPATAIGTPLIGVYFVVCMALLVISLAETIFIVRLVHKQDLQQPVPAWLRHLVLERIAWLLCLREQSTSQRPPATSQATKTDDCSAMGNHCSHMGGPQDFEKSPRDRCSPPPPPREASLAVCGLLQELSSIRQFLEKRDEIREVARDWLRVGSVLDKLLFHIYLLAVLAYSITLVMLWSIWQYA
Description: as §1

BZD (central) = test: In vitro CEREP profiling, BZD (central) (agonist radioligand); format: binding; details: test compound 10 uM
Description: as §1

M3 (h) = biological target: T4, M3 (h) (Homo sapiens, UniProt P20309); test: In vitro CEREP profiling, M3 (h) (antagonist radioligand); format: binding; details: test compound concentration 10 uM
T4 construct: purchased Eurofins Cerep (SafetyScreen44), recognised from the panel format
T4 sequence (P20309 whole entry): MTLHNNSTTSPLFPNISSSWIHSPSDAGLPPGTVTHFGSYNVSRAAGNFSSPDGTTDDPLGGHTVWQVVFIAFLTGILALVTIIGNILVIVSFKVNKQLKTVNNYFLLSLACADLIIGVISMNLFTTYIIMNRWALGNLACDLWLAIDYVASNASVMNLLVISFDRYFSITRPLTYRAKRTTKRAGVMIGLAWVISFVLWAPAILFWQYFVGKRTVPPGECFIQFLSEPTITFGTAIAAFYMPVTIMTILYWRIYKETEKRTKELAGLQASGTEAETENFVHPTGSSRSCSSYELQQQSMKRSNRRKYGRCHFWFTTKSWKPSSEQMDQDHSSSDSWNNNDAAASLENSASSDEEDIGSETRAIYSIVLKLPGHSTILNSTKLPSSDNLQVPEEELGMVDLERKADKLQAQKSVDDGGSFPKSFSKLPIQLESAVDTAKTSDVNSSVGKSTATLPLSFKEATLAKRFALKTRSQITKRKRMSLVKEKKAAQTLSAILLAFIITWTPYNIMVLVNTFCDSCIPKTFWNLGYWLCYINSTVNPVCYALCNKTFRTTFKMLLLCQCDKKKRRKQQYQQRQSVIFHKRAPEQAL
Description: as §1

CB2 (h) = biological target: T5, CB2 (h) (Homo sapiens, UniProt P34972); test: In vitro CEREP profiling, CB2 (h) (agonist radioligand); format: binding; details: test compound 10 uM
T5 construct: purchased Eurofins Cerep (SafetyScreen44), recognised from the panel format
T5 sequence (P34972 whole entry): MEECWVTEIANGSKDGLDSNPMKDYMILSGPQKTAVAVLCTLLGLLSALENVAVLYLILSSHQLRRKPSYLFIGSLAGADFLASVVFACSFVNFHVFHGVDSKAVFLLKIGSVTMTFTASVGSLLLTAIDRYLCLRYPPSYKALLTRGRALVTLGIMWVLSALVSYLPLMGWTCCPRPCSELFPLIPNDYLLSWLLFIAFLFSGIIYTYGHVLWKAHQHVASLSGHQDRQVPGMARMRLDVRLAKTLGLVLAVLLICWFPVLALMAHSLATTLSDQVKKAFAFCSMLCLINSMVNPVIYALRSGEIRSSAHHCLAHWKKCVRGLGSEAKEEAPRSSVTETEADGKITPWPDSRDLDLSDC
Description: as §1

[2] = biological target: T6, N neuronal alpha4beta2 (h) (Homo sapiens, UniProt P17787+P43681); test: In vitro CEREP profiling, N neuronal alpha4beta2 (h) (agonist radioligand); format: binding; details: test compound concentration 10 uM
T6 construct: purchased Eurofins Cerep (SafetyScreen44), recognised from the panel format
T6 sequence (P43681 29-627 limits assumed): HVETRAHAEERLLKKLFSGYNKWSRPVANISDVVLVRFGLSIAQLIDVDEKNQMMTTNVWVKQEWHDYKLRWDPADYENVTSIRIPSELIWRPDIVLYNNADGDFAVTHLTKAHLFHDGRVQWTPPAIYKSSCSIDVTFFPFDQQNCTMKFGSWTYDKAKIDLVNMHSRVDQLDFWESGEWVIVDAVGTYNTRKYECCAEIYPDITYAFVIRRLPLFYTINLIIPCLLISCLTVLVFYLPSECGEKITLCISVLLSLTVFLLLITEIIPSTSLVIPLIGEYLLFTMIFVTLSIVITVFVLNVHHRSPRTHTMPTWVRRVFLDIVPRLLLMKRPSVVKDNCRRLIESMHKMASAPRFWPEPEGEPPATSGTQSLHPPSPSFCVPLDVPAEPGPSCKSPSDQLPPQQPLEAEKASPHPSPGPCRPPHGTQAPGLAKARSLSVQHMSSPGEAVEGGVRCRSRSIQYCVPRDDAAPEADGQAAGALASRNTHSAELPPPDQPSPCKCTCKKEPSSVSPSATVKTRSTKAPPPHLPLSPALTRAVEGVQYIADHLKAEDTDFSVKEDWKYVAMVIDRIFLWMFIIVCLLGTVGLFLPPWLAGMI
T6 sequence (P17787 26-502): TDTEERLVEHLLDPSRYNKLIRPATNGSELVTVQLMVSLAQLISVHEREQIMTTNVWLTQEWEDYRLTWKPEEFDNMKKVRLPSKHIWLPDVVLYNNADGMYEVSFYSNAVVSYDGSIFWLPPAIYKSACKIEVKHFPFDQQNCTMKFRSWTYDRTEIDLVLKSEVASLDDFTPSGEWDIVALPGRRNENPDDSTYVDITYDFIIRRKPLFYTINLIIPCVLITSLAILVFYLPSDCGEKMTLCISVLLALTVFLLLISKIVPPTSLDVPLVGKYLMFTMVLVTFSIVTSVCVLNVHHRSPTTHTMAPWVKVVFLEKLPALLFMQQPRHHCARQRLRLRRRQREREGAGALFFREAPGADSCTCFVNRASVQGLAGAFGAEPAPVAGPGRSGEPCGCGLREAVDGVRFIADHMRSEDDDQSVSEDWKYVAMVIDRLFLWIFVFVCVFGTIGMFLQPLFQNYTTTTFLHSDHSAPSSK
Description: as §1

delta (DOP) (h) = biological target: T7, delta (DOP) (h) (Homo sapiens, UniProt P41143); test: In vitro CEREP profiling, delta (DOP) (h) (agonist radioligand); format: binding; details: test compound concentration 10 uM
T7 construct: purchased Eurofins Cerep (SafetyScreen44), recognised from the panel format
T7 sequence (P41143 whole entry): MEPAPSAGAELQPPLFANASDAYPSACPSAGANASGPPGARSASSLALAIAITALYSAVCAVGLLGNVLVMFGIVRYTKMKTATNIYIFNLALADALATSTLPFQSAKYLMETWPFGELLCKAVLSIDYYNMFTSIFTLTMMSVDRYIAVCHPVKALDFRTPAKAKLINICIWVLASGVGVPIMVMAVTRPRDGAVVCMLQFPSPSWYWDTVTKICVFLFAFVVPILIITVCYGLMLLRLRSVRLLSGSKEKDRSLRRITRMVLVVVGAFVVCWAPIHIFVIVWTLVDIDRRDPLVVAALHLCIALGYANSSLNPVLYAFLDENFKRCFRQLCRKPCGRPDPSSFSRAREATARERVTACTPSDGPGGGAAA
Description: as §1

CCK1 (CCKA) (h) = biological target: T8, CCK1 (CCKA) (h) (Homo sapiens, UniProt P32238); test: In vitro CEREP profiling, CCK1 (CCKA) (h) (agonist radioligand); format: binding; details: test compound 10 uM
T8 construct: purchased Eurofins Cerep (SafetyScreen44), recognised from the panel format
T8 sequence (P32238 1-428): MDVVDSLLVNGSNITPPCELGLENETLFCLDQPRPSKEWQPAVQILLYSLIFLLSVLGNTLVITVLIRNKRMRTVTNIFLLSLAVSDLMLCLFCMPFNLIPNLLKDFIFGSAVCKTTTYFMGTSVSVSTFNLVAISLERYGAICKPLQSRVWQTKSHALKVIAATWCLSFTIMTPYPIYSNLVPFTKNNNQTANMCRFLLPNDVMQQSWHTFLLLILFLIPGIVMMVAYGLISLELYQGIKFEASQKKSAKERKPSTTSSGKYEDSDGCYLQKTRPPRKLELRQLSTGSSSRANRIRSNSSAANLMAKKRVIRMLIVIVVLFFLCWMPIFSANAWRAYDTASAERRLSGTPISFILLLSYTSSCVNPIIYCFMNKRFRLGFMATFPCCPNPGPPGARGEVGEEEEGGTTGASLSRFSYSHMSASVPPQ
Description: as §1

[3] = In vitro rat SD liver microsomal stability; format: in vitro ADME
Description: Supplement media-1.zip/Hepatic_Microsomal_Stability.csv, table | column: clint; t_half

[4] = biological target: T9, norepinephrine transporter (h) (Homo sapiens, UniProt P23975); test: In vitro CEREP profiling, norepinephrine transporter (h) (antagonist radioligand); format: binding; details: test compound concentration 10 uM
T9 construct: purchased Eurofins Cerep (SafetyScreen44), recognised from the panel format
T9 sequence (P23975 whole entry): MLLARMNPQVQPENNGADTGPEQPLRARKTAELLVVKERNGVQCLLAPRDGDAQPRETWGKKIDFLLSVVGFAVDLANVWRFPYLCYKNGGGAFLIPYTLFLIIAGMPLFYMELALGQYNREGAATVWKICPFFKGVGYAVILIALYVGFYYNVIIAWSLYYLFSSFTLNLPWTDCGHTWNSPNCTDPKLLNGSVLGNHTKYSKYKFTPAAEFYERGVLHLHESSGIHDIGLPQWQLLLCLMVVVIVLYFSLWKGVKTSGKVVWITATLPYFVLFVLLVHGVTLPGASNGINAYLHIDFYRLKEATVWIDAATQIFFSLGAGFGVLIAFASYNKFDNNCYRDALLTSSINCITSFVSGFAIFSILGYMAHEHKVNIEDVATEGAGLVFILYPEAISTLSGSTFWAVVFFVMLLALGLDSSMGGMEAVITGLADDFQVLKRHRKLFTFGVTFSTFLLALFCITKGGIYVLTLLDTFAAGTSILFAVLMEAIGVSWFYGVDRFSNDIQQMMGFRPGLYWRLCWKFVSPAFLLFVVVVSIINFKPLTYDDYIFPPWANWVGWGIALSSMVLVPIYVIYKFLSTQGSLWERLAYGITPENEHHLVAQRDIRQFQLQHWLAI
Description: as §1

in vitro = details: human, hela-ace2 cells, 50.0
[5] = Hepatic microsomal stability, MLM; format: in vitro ADME; details: In vitro mouse liver microsomal stability
[6] = In vitro dog plasma protein binding
[7] = In vitro fetal calf serum protein binding
[8] = In vitro human plasma protein binding
[9] = In vitro mouse plasma protein binding
[10] = In vitro rat plasma protein binding

SMILES	clint [1] [uL/min/1E6 cells]	t_half [1] [min]	fu (Protein binding; [6])	perc_bound (Protein binding; [6]) [%]	perc_free (Protein binding; [6]) [%]	perc_recovered (Protein binding; [6]) [%]	fu (Protein binding; [7])	perc_bound (Protein binding; [7]) [%]	perc_free (Protein binding; [7]) [%]	perc_recovered (Protein binding; [7]) [%]	fu (Protein binding; [8])	perc_bound (Protein binding; [8]) [%]	perc_free (Protein binding; [8]) [%]	perc_recovered (Protein binding; [8]) [%]	fu (Protein binding; [9])	perc_bound (Protein binding; [9]) [%]	perc_free (Protein binding; [9]) [%]	perc_recovered (Protein binding; [9]) [%]	fu (Protein binding; [10])	perc_bound (Protein binding; [10]) [%]	other results
CC(C)[C@H](Nc1ncnc2[nH]c(-c3cnn(C)c3C#N)cc12)c1ccc2c(n1)OCCO2 [ASAP-0010715]	28.7	24.2	0.042	95.8	4.24	87.48	0.072	92.8	7.24	89.85	0.005	99.5	0.541	113.8	0.026	97.4	2.56	93.63	0.02	98.0	perc_free (Protein binding; [10]): 2.04%; perc_recovered (Protein binding; [10]): 97.27%; perc_inhibition (% inhibition of the binding of a ligand specific for each target) (H2 (h)): -16%; perc_inhibition (% inhibition of the binding of a ligand specific for each target) (MAO-A): 4%; perc_inhibition (% inhibition of the binding of a ligand specific for each target) (5-HT3 (h)): 6%; perc_inhibition (% inhibition of the binding of a ligand specific for each target) (BZD (central)): -2%; perc_inhibition (% inhibition of the binding of a ligand specific for each target) (M3 (h)): -15%; perc_inhibition (% inhibition of the binding of a ligand specific for each target) (CB2 (h)): 44%; perc_inhibition (% inhibition of the binding of a ligand specific for each target) [2]: 2%; perc_inhibition (% inhibition of the binding of a ligand specific for each target) (delta (DOP) (h)): 58%; perc_inhibition (% inhibition of the binding of a ligand specific for each target) (CCK1 (CCKA) (h)): 1%; clint [3]: 106.0 µL/min/mg; t_half [3]: 6.54 min; perc_inhibition (% inhibition of the binding of a ligand specific for each target) [4]: 9%; CC50 at 24 h (in vitro): > 20 µM
CC(C)[C@@H](Nc1ncnc2[nH]c(-c3cnn(C)c3C#N)cc12)c1ccc2c(n1)OCCO2 [ASAP-0010716]	182.0	3.81	0.029	97.1	2.93	91.53	0.038	96.2	3.84	96.46	0.005	99.5	0.507	111.8	0.027	97.3	2.67	94.71	0.022	97.8	clint [5]: 371.0 µL/min/mg; perc_remaining [5]: 1.0%; t_half [5]: 4.5 min; perc_remaining_no_cofactor ([5]; no cofactor): 99.0%; perc_free (Protein binding; [10]): 2.16%; perc_recovered (Protein binding; [10]): 100.0%; perc_inhibition (% inhibition of the binding of a ligand specific for each target) (H2 (h)): -11%; perc_inhibition (% inhibition of the binding of a ligand specific for each target) (MAO-A): 8%; perc_inhibition (% inhibition of the binding of a ligand specific for each target) (5-HT3 (h)): 4%; perc_inhibition (% inhibition of the binding of a ligand specific for each target) (BZD (central)): 8%; perc_inhibition (% inhibition of the binding of a ligand specific for each target) (M3 (h)): 1%; perc_inhibition (% inhibition of the binding of a ligand specific for each target) (CB2 (h)): 16%; perc_inhibition (% inhibition of the binding of a ligand specific for each target) [2]: -2%; perc_inhibition (% inhibition of the binding of a ligand specific for each target) (delta (DOP) (h)): 71%; perc_inhibition (% inhibition of the binding of a ligand specific for each target) (CCK1 (CCKA) (h)): 20%; clint [3]: 156.0 µL/min/mg; t_half [3]: 4.46 min; perc_inhibition (% inhibition of the binding of a ligand specific for each target) [4]: 4%
